Measured values from ChEMBL document CHEMBL4402540, “Structure-Activity Relationship Studies of Small Molecule Modulators of the Staphylococcal Accessory Gene Regulator” (J Med Chem, 2020).
Where a SMILES comes first, the peptide text is derived from it. Bridges are numbered along the chain shown (N, C = ends). [ ]: non-standard residue; d: D form. The star is where a group is joined. 6FAM = O=C1OC2(c3ccc(O)cc3Oc3cc(O)ccc32)c2cc(C(=O)*)ccc21; Biotin = O=C1N[C@H]2[C@H](CS[C@H]2CCCCC(=O)*)N1; NMeF = CN[C@@H](Cc1ccccc1)C(=O)O; NMeS = CN[C@@H](CO)C(=O)O; Dap = NC[C@H](N)C(=O)O; Ava = NCCCCC(=O)O

How the values were obtained:
[1] = Inhibition of AgrC-1 in Staphylococcus aureus
[2] = Inhibition of AgrC-3 in Staphylococcus aureus
[3] = Inhibition of AgrC-4 in Staphylococcus aureus
[4] = Inhibition of AgrC-2 in Staphylococcus aureus
[5] = Inhibition of AgrC-1 Staphylococcus aureus RN10829 incubated for 45 mins by beta-lactamase reporter gene assay
[6] = Inhibition of AgrC-3 in Staphylococcus aureus AH1747 incubated for 24 hrs by fluorescence assay
[7] = Inhibition of AgrC-4 in Staphylococcus aureus AH1872 incubated for 24 hrs by fluorescence assay
[8] = Inhibition of AgrC-2 in Staphylococcus aureus AH430 incubated for 24 hrs by fluorescence assay
[9] = Inhibition of AgrC-1 in Staphylococcus aureus AH1677 incubated for 24 hrs by fluorescence assay
[10] = Inhibition of AgrC-2 in Staphylococcus aureus RN9372 incubated for 60 to 90 mins in presence of AIP agonist by beta-lactamase reporter gene assay
[11] = Inhibition of AgrC-1 in Staphylococcus aureus RN9222 incubated for 1 hr in presence of AIP agonist by beta-lactamase reporter gene assay
[12] = Inhibition of AgrC-2 in Staphylococcus aureus RN9372 incubated for 1 hr in presence of AIP agonist by beta-lactamase reporter gene assay
[13] = Inhibition of AgrC-1 Staphylococcus epidermidis AH3408 incubated for 24 hrs by fluorescence assay

With `CC[C@H](C)[C@H]1NC(=O)[C@@H](Cc2ccccc2)NC(=O)[C@@H](C)NC(=O)[C@H](NC(C)=O)CSC(=O)[C@@H](CCSC)NC1=O` the IC50 [1] was 5 nM, the IC50 [2] was 0.1 nM and the IC50 [3] was 5 nM. It also gave an IC50 [4] of 5 nM.

In the case of `CC[C@H](C)[C@H]1NC(=O)[C@@H](Cc2ccccc2)NC(=O)[C@@H](C)NC(=O)[C@H](NC(=O)[C@H](NC(=O)[C@@H](CO)NC(=O)[C@H](N)Cc2ccc(O)cc2)[C@@H](C)O)CSC(=O)[C@@H](CCSC)NC1=O`, the IC50 [1] is reported as 5 to 303 nM, the IC50 [2] is reported as 0.3 nM and the IC50 [3] is reported as 3 nM. It also gave an IC50 [4] of 8 to 18 nM.

Compound `CC(=O)N[C@H]1CSC(=O)[C@@H](CC(C)C)NC(=O)[C@@H](CC(C)C)NC(=O)[C@@H](Cc2ccccc2)NC(=O)[C@@H](CC(=O)O)NC1=O` has an IC50 [5] of 16.8 nM.

Compound `CC(C)C[C@H]1NC(=O)[C@@H](Cc2ccccc2)NC(=O)[C@@H](CC(=O)O)NC(=O)[C@@H](NC(=O)[C@@H](Cc2ccccc2)NC(=O)[C@@H]2CCCN2C(=O)[C@H](N)Cc2ccc(O)cc2)CSC(=O)[C@@H](CC(C)C)NC1=O` has an IC50 [5] of 0.31 nM.

Compound `CC[C@@H](C)[C@H](N)C(=O)N[C@H](CC(N)=O)C(=O)N(C)[C@@H]1CSC(=O)[C@@H](CC(C)C)N(C)C(=O)[C@@H](CC(C)C)NC(=O)CN(Cc2ccccc2)C(=O)[C@@H](CC(=O)O)NC1=O` has an IC50 [1] of 4.49 nM, an IC50 [3] of 6.59 nM and an IC50 [4] of 1.95 nM.

Compound `CC[C@@H](C)[C@H](NC(C)=O)C(=O)N[C@H](CC(N)=O)C(=O)N[C@@H]1CSC(=O)[C@@H](Cc2ccccc2)NC(=O)[C@@H](CC(C)C)NC(=O)[C@@H](CC(C)C)NC(=O)[C@@H](C)NC1=O` has an IC50 [6] of 0.0506 to 0.35 nM, an IC50 [7] of 0.0349 to 0.75 nM and an IC50 [8] of 0.429 to 3.5 nM. It also gave an IC50 [1] of 0.5 nM, an IC50 [2] of 0.05 nM and an IC50 [3] of 0.03 nM. The IC50 [4] was 0.4 nM and the IC50 [9] was 0.485 to 2.9 nM.

Compound `CC[C@@H](C)[C@H](N)C(=O)N[C@H](CC(N)=O)C(=O)N(C)[C@@H]1CSC(=O)[C@@H](CC(C)C)N(C)C(=O)[C@@H](CC(C)C)NC(=O)[C@@H](Cc2ccccc2)NC(=O)[C@@H](CC(=O)O)NC1=O` has an IC50 [1] of 137 nM, an IC50 [3] of 106 nM and an IC50 [4] of 134 nM.

Work on `CC[C@H](C)[C@H](NC(=O)c1ccc2c(c1)C1(OC2=O)c2ccc(O)cc2Oc2cc(O)ccc21)C(=O)N[C@@H](CC(N)=O)C(=O)N[C@H]1CSC(=O)[C@H](CC(C)C)NC(=O)[C@H](CC(C)C)NC(=O)[C@H](Cc2ccccc2)NC(=O)[C@H](C)NC1=O` (6FAM-INCAFLL; thioester 3-C) yielded an IC50 [10] of 22 nM.

Compound `CC(=O)N[C@H]1CSC(=O)[C@H](Cc2ccccc2)NC(=O)[C@H](CC(C)C)NC(=O)[C@H](CO)N(C)C(=O)[C@H](CO)NC1=O` (Ac-CS[NMeS]LF; thioester 1-C) has an IC50 [11] of 319 nM and an IC50 [12] of 1050 nM.

`CC(=O)N[C@H]1CSC(=O)[C@H](Cc2ccccc2)N(C)C(=O)[C@H](CC(C)C)NC(=O)CCCCNC1=O` (Ac-C[Ava]L[NMeF]; thioester 1-C) gave an IC50 [11] of 1140 nM and an IC50 [12] of 50700 nM.

With `CC(=O)N[C@H]1CSC(=O)[C@H](Cc2ccccc2)NC(=O)[C@H](CC(C)C)NC(=O)[C@H](CO)NC(=O)[C@H](CO)N(C)C1=O` (Ac-C[NMeS]SLF; thioester 1-C) the IC50 [11] was 639 nM and the IC50 [12] was 7880 nM.

Compound `CC(=O)N[C@H]1CNC(=O)[C@H](Cc2ccccc2)N(C)C(=O)[C@H](CC(C)C)NC(=O)[C@H](CO)NC(=O)[C@H](CO)NC1=O` (Ac-[Dap]SSL[NMeF]; lactam 1-C) has an IC50 [11] of 1390 nM and an IC50 [12] of 167000 nM.

In the case of `CC[C@H](C)[C@@H]1NC(=O)[C@H](Cc2ccccc2)NC(=O)[C@H](CC(=O)O)NC(=O)[C@@H](NC(=O)[C@@H](NC(=O)[C@H](CO)NC(=O)[C@H](Cc2ccc(O)cc2)NC(=O)CCCC[C@@H]2SC[C@@H]3NC(=O)N[C@@H]32)[C@@H](C)O)CSC(=O)[C@H](CCSC)NC1=O` (Biotin-YSTCDFIM; thioester 4-C), the IC50 [10] is reported as 40 nM.

Compound `C[C@H](N)C(=O)N[C@@H](CO)C(=O)N[C@@H](C)C(=O)N[C@H]1CSC(=O)[C@H](Cc2ccccc2)NC(=O)[C@H](Cc2ccc(O)cc2)NC(=O)[C@H](C)NC(=O)[C@H](C)NC1=O` (H-ASACAAYF; thioester 4-C) has an IC50 [13] of 2.84 nM.
